Measurements published in article PMC5596636 (ACS chemical neuroscience, 2016).
“Also recorded” adds a separate entry of the source.

Experiments:
mMC4R [1] = molecular target: T1, mMC4R (Mus musculus, UniProt P56450); conditions: cloned mouse receptors; cited from earlier work
mMC1R [2] = molecular target: T2, mMC1R (Mus musculus, UniProt Q01727); conditions: cloned mouse receptors; cited from earlier work
mMC3R [3] = molecular target: T3, mMC3R (Mus musculus, UniProt P33033); conditions: cloned mouse receptors; cited from earlier work
mMC5R [4] = molecular target: T4, mMC5R (Mus musculus, UniProt P41149); conditions: cloned mouse receptors; cited from earlier work
mMC4R [5] = molecular target: T1, mMC4R; assay: cAMP-based β-galactosidase reporter agonist assay in HEK293 cells, mMC4R; conditions: EC50 of substituted peptide divided by EC50 of NDP-MSH; potency loss
hMC1R [6] = conditions: cited from earlier work
hMC4R [7] = conditions: cited from earlier work
mMC3R [8] = molecular target: T3, mMC3R; assay: cAMP-based β-galactosidase reporter agonist assay in HEK293 cells, mMC3R; conditions: for mMC3R fold difference: EC50 of substituted peptide divided by EC50 of NDP-MSH, potency loss
mMC1R [9] = molecular target: T2, mMC1R; assay: cAMP-based β-galactosidase reporter agonist assay in HEK293 cells, mMC1R; conditions: EC50 of substituted peptide divided by EC50 of NDP-MSH; potency loss
mMC5R [10] = molecular target: T4, mMC5R; assay: cAMP-based β-galactosidase reporter agonist assay in HEK293 cells, mMC5R; conditions: EC50 of substituted peptide divided by EC50 of NDP-MSH; potency loss
hMC3R = conditions: COS cell-line expressing human melanocortin receptors; cited from earlier work
hMC4R [11] = conditions: cited from earlier work; remark: listed apart in the source
hMC1R [12] = conditions: COS cell-line expressing human melanocortin receptors; cited from earlier work

T1 sequence (P56450 whole entry): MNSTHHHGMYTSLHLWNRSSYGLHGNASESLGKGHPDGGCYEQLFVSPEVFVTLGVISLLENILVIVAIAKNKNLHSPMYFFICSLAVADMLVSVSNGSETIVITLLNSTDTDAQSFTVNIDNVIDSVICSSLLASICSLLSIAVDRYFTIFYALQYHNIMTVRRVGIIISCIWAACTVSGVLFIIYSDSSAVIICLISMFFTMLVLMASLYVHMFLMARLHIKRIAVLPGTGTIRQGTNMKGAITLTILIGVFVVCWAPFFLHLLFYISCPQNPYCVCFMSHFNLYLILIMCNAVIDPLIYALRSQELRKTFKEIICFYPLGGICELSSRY
T4 sequence (P41149 whole entry): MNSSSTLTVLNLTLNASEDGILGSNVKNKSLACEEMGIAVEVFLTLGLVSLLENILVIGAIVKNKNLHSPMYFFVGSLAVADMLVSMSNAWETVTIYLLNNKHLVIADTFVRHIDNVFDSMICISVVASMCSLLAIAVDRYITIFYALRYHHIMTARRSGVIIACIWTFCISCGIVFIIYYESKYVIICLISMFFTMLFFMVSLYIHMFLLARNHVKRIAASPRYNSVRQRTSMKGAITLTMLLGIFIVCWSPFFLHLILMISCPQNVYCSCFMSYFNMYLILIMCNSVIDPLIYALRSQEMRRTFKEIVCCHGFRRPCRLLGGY
T3 sequence (P33033 whole entry): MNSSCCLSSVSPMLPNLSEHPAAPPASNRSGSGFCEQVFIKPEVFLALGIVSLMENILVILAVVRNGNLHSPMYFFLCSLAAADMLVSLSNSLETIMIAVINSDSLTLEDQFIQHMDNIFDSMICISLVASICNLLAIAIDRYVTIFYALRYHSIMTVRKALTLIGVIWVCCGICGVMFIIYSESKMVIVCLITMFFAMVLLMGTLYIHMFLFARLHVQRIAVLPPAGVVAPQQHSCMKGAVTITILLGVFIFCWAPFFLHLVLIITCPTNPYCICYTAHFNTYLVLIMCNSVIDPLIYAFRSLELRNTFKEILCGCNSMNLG
T2 sequence (Q01727 whole entry): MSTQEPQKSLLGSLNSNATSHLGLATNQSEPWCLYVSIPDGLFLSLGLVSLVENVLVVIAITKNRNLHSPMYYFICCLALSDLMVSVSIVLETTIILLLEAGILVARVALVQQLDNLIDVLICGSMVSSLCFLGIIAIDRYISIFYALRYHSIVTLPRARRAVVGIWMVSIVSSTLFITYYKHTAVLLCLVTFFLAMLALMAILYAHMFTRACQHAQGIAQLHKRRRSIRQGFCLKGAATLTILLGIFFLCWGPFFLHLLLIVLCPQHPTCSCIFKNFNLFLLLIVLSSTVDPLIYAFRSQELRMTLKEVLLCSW

Compound | agonist potency at the mMC4R (mMC4R [1]) | agonist potency at the mMC1R (mMC1R [2]) | agonist potency at the mMC3R (mMC3R [3]) | agonist potency at the mMC5R (mMC5R [4]) | mMC4R fold difference (mMC4R [5]) | agonist efficacy at the hMC1R (hMC1R [6]) | fold less potent than NDP-MSH at the hMC1R (hMC1R [6]) [fold] | activation of the hMC4R (hMC4R [7]; at concentrations up to 100 μM) | EC50 (mMC3R [8]) [µM] | mMC3R fold difference (mMC3R [8]) | mMC1R fold difference (mMC1R [9]) | mMC5R fold difference (mMC5R [10]) | efficacy relative to NDP-MSH at the hMC4R (hMC4R [7]) [%] | fold agonist potency loss at the hMC4R relative to NDP-MSH (hMC4R [7]) | fold decreased binding affinity at the hMC3R (hMC3R) [fold] | fold decreased agonist potency at the hMC4R relative to NDP-MSH (hMC4R [11]) [fold] | fold decreased binding affinity at the hMC1R (hMC1R [12]) [fold]
Ac-His-Phe-Arg-Trp-NH2 | micromolar potency | micromolar potency | micromolar potency | sub-micromolar potency |  |  |  |  |  |  |  |  |  |  |  |  | 
CCCC[C@H](NC(=O)[C@H](CO)NC(=O)[C@H](Cc1ccc(O)cc1)NC(=O)[C@H](CO)NC(C)=O)C(=O)N[C@@H](CCC(=O)O)C(=O)N[C@@H](Cc1c[nH]cn1)C(=O)N[C@H](Cc1ccccc1)C(=O)N[C@@H](CCCNC(=N)N)C(=O)N[C@@H](C)C(=O)NCC(=O)N[C@@H](CCCCN)C(=O)N1CCC[C@H]1C(=O)N[C@H](C(N)=O)C(C)C [[Ala^9]NDP-MSH, Ac-Ser-Tyr-Ser-Nle-Glu-His-DPhe-Arg-Ala-Gly-Lys-Pro-Val-NH2] |  |  |  |  | 2120 fold | full agonist | 3 | not to activate | 0.295 ± 0.092 | 1230 fold | 180 fold | 220 fold |  |  |  |  | 
CCCC[C@H](NC(=O)[C@H](CO)NC(=O)[C@H](Cc1ccc(O)cc1)NC(=O)[C@H](CO)NC(C)=O)C(=O)N[C@@H](CCC(=O)O)C(=O)N[C@@H](C)C(=O)N[C@H](Cc1ccccc1)C(=O)N[C@@H](CCCNC(=N)N)C(=O)N[C@@H](Cc1c[nH]c2ccccc12)C(=O)NCC(=O)N[C@@H](CCCCN)C(=O)N1CCC[C@H]1C(=O)N[C@H](C(N)=O)C(C)C [[Ala^6]NDP-MSH, Ac-Ser-Tyr-Ser-Nle-Glu-Ala-DPhe-Arg-Trp-Gly-Lys-Pro-Val-NH2] |  |  |  |  | did not alter agonist potency |  |  |  | 0.00055 ± 0.00012 | did not alter agonist potency; also recorded: equipotency | did not alter agonist potency | did not alter agonist potency | 40 | equipotent | 6 | 4 | 8
